{"source": "patent US9150579B2", "about": "“Selective PI3K delta inhibitors” (Rhizen Pharmaceuticals SA, priority 2012, dated 2015)", "key": {"[1]": {"target": "PI3K β (Homo sapiens (Human), UniProt P42338)", "sequence (P42338 whole entry, canonical isoform)": "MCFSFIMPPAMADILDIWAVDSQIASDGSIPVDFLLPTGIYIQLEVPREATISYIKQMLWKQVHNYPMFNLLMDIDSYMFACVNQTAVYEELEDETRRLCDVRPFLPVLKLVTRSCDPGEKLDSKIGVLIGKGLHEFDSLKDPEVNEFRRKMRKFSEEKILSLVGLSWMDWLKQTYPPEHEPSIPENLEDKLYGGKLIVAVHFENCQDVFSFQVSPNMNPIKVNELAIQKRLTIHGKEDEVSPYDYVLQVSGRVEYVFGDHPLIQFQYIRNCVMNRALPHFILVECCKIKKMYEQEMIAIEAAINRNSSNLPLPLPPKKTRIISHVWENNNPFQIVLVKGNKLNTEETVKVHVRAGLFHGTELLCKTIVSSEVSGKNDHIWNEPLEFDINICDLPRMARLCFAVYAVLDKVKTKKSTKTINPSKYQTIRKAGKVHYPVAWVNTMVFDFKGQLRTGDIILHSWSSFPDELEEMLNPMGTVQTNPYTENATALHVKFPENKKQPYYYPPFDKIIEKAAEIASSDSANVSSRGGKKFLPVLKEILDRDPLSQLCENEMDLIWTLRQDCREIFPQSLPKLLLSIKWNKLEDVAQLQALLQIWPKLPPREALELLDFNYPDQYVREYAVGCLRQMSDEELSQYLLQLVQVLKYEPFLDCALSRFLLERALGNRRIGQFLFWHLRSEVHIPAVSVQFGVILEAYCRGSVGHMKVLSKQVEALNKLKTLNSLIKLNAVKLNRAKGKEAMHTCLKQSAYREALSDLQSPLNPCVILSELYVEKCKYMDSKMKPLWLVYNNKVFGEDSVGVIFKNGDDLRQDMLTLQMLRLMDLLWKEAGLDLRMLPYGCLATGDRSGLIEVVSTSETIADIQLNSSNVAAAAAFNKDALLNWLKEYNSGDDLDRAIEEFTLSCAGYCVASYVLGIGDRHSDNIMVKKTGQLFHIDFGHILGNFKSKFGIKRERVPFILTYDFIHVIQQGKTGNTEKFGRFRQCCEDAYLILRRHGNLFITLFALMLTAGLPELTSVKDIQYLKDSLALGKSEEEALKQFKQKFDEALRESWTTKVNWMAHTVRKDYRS", "sequence (P27986 whole entry partner, canonical isoform)": "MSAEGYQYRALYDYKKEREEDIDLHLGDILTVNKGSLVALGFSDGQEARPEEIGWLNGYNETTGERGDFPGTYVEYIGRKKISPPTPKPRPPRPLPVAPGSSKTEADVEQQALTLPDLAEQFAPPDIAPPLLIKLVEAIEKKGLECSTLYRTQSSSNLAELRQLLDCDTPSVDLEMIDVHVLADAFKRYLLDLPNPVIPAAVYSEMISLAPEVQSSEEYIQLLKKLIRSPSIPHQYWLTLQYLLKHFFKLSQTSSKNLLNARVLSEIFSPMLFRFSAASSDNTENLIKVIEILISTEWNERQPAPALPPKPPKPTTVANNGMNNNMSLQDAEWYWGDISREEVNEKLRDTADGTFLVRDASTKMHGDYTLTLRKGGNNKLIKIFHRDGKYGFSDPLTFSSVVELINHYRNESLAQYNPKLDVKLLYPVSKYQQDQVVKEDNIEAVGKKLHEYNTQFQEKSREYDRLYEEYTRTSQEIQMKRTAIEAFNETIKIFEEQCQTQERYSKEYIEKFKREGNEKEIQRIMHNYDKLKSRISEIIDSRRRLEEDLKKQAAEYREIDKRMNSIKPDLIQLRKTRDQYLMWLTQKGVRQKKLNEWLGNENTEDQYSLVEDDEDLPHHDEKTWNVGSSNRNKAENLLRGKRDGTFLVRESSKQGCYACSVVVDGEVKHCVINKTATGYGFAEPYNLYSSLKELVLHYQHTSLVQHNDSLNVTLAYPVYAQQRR", "experiment": "Assay 1: Fluorescent (HTRF) determination of PI3K enzyme activity, beta", "assay_type": "biochemical", "method": "The homogenous time resolved fluorescence (HTRF) assay allows detection of 3,4,5-triphosphate (PIP3) formed as a result of phosphorylation of phosphotidylinositol 4,5-biphosphate (PIP2) by PI3K isoforms such as α, β, γ or δ.\nPI3K isoform activity for α, β, γ or δ was determined using a PI3K human HTRF™ Assay Kit (Millipore, Billerica, Mass.) with modifications. All incubations were carried out at room temperature. […] After the initial incubation, 5 μl/well of 400 μM ATP was added and incubated for an additional 30 minutes. Reaction was terminated by adding 5 μl/well stop solution (Millipore, Billerica, Mass.). Five microliters of detection mix (Millipore, Billerica, Mass.) were then added to each well and was incubated for 6-18 h in the dark."}, "[2]": {"test_system": "AKT phosphorylation in THP-1, HL-60, MOLT-4, RPMI-8226, or DLBCL cells", "experiment": "Assay 3: Inhibition of AKT phosphorylation in leukemic cell lines", "assay_type": "cell-based", "settings": "48 hours, Western Blotting", "method": "Inhibition of AKT phosphorylation in leukemic cell lines: THP-1, HL-60, MOLT-4, RPMI-8226, or DLBCL cells were incubated with desired concentrations of compound for 48 hours. Cells were lysed and pAKT was determined by Western Blotting. Bands were quantified using ImageJ and normalized to actin."}, "[3]": {"target": "PI3Kα (Mus musculus (Mouse), UniProt P42337)", "sequence (P42337 whole entry)": "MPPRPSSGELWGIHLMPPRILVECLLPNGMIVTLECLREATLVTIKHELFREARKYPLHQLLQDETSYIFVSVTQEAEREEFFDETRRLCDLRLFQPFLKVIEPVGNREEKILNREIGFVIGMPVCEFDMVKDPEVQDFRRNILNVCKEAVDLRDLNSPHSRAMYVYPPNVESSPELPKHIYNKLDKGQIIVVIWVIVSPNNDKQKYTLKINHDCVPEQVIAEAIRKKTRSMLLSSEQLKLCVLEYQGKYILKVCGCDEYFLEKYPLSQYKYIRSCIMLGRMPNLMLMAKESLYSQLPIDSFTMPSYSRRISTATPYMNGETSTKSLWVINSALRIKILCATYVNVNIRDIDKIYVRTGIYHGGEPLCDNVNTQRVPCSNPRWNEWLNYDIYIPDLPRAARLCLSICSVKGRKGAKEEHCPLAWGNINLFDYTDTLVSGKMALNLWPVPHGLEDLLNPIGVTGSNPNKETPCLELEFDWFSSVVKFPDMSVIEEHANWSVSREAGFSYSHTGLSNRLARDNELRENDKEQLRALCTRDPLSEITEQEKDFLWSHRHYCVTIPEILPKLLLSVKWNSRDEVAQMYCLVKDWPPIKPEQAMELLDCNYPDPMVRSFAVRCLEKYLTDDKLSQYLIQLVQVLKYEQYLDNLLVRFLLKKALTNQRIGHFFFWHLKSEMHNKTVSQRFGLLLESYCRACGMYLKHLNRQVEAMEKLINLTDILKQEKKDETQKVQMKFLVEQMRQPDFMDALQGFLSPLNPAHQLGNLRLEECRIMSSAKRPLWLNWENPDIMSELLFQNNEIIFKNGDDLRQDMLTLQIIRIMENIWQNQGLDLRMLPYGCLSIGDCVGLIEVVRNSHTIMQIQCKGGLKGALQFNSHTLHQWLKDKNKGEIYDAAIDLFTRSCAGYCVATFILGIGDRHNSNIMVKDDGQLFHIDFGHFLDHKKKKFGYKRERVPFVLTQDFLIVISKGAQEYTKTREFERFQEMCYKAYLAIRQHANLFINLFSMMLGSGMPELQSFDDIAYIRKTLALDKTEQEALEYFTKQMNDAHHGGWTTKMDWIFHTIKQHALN", "sequence (P26450 whole entry partner)": "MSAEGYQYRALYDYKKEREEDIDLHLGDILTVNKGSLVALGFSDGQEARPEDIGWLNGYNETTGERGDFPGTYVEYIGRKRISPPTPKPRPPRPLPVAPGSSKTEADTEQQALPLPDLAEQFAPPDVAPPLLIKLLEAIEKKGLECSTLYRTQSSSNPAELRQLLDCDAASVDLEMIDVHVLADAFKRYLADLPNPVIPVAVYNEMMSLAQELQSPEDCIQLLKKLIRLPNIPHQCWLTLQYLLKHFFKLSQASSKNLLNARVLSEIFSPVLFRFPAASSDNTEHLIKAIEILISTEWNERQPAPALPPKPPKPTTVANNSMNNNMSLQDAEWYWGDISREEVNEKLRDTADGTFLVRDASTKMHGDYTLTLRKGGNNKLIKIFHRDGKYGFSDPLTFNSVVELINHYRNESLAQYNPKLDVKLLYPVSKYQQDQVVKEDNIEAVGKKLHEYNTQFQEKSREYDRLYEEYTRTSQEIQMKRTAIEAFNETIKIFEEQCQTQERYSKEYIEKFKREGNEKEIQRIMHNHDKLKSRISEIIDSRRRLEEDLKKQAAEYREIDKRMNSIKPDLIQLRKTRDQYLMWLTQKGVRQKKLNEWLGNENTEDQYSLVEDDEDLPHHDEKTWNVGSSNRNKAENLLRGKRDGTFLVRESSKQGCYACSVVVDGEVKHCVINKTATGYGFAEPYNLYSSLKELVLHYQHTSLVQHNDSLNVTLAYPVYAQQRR", "settings": "Cell-based; versus PI3Kδ", "method": "(§1) Compound specificity towards PI3Kδ was determined in an IgM-induced B cell proliferation assay. B-cells isolated from blood of healthy subjects were seeded in a 96-well tissue culture plate and incubated with desired concentrations of compound for 30 min. Cells were stimulated with 5 μg/ml purified goat anti-human IgM. Growth was assessed using the 3-[4,5-dimethylthiazol-2-yl]-2,5-diphenyltetrazolium bromide (MTT) dye reduction test. For selectivity against PI3K α, β, or γ isoforms, NIH-3T3 or RAW macrophages were seeded in a 6-well tissue culture plate and incubated overnight. Complete medium was replaced with serum-free media the following day and compound at the desired concentrations were added. After 15 minutes, 20 ng/ml PDGF, 5 μM LPA, or 50 ng/ml c5a was added and incubated for an additional 10 minutes. Cells were lysed and AKT phosphorylation was determined by Western Blotting. Intensity of the bands was determined using ImageJ 1.42q (NIH, USA) and normalized to Actin (loading control)."}, "[4]": {"target": "PI3Kβ (Mus musculus (Mouse), UniProt Q8BTI9)", "sequence (Q8BTI9 whole entry)": "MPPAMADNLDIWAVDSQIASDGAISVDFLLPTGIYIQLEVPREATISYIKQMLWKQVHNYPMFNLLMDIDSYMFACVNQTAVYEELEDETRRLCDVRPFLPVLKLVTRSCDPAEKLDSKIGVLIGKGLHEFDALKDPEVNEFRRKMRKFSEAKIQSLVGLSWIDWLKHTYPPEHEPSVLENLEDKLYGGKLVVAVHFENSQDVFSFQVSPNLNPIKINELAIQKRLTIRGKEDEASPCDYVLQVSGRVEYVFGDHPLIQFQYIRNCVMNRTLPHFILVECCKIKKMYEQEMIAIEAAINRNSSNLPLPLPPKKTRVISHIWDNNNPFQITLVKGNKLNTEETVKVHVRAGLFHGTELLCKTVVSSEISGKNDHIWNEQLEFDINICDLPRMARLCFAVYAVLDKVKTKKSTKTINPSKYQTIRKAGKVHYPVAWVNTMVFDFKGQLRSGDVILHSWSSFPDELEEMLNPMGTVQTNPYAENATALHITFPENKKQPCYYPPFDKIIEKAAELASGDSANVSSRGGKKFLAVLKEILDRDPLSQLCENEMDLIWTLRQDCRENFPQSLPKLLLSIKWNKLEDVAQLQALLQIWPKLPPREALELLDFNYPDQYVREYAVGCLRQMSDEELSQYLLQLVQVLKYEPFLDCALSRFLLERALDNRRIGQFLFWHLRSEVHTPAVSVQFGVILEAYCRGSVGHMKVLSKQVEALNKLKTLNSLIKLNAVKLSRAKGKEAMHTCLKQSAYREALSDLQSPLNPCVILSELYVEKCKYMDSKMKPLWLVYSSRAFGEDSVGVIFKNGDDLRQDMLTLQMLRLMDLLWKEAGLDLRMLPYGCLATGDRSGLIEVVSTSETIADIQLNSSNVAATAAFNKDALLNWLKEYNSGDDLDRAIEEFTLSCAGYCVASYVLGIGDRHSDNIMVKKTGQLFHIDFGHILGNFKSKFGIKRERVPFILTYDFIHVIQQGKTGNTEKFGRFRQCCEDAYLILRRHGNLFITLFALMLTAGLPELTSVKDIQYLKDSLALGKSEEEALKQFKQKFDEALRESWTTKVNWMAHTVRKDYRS", "sequence (P26450 whole entry partner)": "as the sequence (P26450 whole entry partner) above", "settings": "Cell-based; versus PI3Kδ", "method": "as §1"}, "[5]": {"target": "PI3Kγ (Mus musculus (Mouse), UniProt Q9JHG7)", "settings": "Cell-based; versus PI3Kδ", "method": "as §1"}, "[6]": {"test_system": "AML patient bone marrow leukemic cells", "experiment": "Assay 6-I: Flow cytometry analysis of apoptotic induction in AML patient bone marrow leukemic cells", "assay_type": "cell-based, human", "method": "6-I: Flow cytometry analysis of apoptotic induction in AML patient bone marrow leukemic cells upon compound treatment using Annexin V and 7-AAD staining: Mononuclear cells were extracted by the Ficoll method and seeded in plates. The cells were treated by different compounds for 48 hrs before they were analyzed by flow cytometry. After washing with PBS, 1×10^5 cells were stained by Annexin V-APC and 7-AAD. Annexin V positive staining measures total apoptotic cells, including early and late apoptotic cells. For Annexin V positive cells, 7-AAD negative signal reflects early apoptotic cells."}}}
{"smiles": "CC(C)Oc1ccc(-c2nn([C@@H](C)c3oc4ccccc4c(=O)c3-c3cccc(F)c3)c3ncnc(N)c23)cc1F", "note": "[Compound A1, (S)-2-(1-(4-amino-3-(3-fluoro-4-isopropoxyphenyl)-1H-pyrazolo[3,4-d]pyrimidin-1-yl)ethyl)-3-(3-fluorophenyl)-4H-chromen-4-one]", "values": [{"measurement": "inhibition at 1 µM", "setting": "[1]", "result": 47.9, "unit": "%"}, {"measurement": "Fold-Selectivity PI3Kβ", "setting": "[1]; Enzyme, versus PI3Kδ", "result": ">54", "unit": "fold"}, {"measurement": "inhibition at 1 µM", "setting": "[2]", "result": "50 to 90", "unit": "%"}, {"measurement": "Fold-Selectivity PI3Kα", "setting": "[3]", "result": ">1000", "unit": "fold"}, {"measurement": "Fold-Selectivity PI3Kβ", "setting": "[4]", "result": ">30", "unit": "fold"}, {"measurement": "Fold-Selectivity PI3Kγ", "setting": "[5]", "result": ">8", "unit": "fold"}, {"measurement": "number of apoptotic cells", "setting": "[6]", "result": "concomitant increase in the number of apoptotic cells"}, {"measurement": "fold increase in apoptosis", "setting": "[6]; 3 μM, 48 hrs", "result": "~1.5 fold increase in appotosis @ 3 μM and"}]}
